In PMC10088020, “AA16 Oxidoreductases Boost Cellulose-Active AA9 Lytic Polysaccharide Monooxygenases from Myceliophthora thermophila” (ACS Catalysis, 2023):

Key:
AnAA16A = molecular target: T1, AnAA16A (Aspergillus nidulans, UniProt Q5BFA2); experiment: H2O2 production, ferric-xylenol orange assay; assay type: biochemical; details: 1 mM Pyg as reductant, O2; pH 5.0, 30 °C
T1 construct: gene ANIA_00778; catalytic domain; C-terminal extension (residues 199-306) removed, native signal peptide used for secretion; C-terminal His-tag cut with TEV; Pichia pastoris X-33; N-terminal His not methylated; Cu(II)-saturated
T1 sequence (Q5BFA2 20-198): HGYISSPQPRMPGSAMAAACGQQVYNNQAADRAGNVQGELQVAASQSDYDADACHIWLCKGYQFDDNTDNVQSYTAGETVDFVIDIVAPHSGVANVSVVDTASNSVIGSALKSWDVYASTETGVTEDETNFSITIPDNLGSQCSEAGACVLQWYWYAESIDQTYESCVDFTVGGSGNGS

MtAA16A [1] = molecular target: T2, MtAA16A (Thermothelomyces thermophilus, UniProt G2QH80); experiment: H2O2-driven oxidation to coerulignone ([…],6-DMP assay); assay type: biochemical; details: co-substrate H2O2; Cu(II)-saturated enzyme
T2 construct: gene MYCTH_2306267; mature secreted protein, homologously produced in M. thermophila C1; signal peptide removed; N-terminal His methylated; Cu(II)-saturated

MtAA16A [2] = molecular target: T2, MtAA16A; experiment: thermal shift (nDSF); details: may reflect reduction of the active-site copper rather than binding (authors)

T2 sequence (G2QH80 entry or part of it): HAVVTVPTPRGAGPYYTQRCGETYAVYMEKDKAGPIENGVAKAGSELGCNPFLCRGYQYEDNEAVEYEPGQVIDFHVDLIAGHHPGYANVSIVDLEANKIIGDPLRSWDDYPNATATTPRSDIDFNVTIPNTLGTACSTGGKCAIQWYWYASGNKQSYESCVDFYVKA

Structure (SMILES)	H2O2 production, ferric-xylenol orange assay (AnAA16A)	H2O2-driven oxidation to coerulignone (2,6-DMP assay) (MtAA16A [1])	thermal stabilization (MtAA16A [2])
Oc1cccc(O)c1O [pyrogallol]	we observed accumulation of H2O2 in MtAA16A-Pyg and AnAA16A-Pyg samples		
COc1cccc(OC)c1O [syringol, 2,6-dimethoxyphenol]		MtAA16A is a copper-dependent enzyme able to oxidize syringol in the presence of H2O2	syringol induced significant thermal stabilization (Figure S8), which is consistent with binding
